Results on one substance are retold here after paper PMC4980083 (JCI insight, 2016).

In one assay the target is T1, recombinant AR LBD (Homo sapiens, UniProt P10275).
T1 sequence (P10275 669-900 limits assumed): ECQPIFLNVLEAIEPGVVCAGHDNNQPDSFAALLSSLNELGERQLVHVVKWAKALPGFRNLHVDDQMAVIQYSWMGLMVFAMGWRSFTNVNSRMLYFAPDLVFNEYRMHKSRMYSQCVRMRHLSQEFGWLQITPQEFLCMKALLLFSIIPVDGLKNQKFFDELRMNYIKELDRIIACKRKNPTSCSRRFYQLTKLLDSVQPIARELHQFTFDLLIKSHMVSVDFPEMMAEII
As to the kind of experiment: Fluorescence polarization competition binding, AR LBD. To be noted: 1 nM fluorescently labeled ligand, AR LBD 25 nM.

The target in another assay is T2, GR LBD (Homo sapiens, UniProt P04150).
T2 sequence (P04150 524-758 limits assumed): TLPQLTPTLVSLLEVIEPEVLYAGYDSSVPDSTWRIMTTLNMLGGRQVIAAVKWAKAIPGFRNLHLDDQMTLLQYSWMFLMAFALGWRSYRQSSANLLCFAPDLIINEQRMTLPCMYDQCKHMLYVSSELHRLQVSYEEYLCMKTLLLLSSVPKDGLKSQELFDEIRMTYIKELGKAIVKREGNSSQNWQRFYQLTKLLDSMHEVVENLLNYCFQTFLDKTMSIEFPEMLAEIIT
In words: Fluorescence polarization competition binding, GR LBD.

For a further assay, the target named is T3, PR LBD (Homo sapiens, UniProt P06401).
T3 sequence (P06401 679-913 limits assumed): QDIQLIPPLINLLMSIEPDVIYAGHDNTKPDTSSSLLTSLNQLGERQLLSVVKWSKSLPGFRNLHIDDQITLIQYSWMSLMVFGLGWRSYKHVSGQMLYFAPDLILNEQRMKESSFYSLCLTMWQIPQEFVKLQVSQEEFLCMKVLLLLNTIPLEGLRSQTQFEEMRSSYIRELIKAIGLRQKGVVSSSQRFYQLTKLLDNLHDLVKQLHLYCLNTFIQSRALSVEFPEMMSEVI
In words: Fluorescence polarization competition binding, PR LBD.

A further assay deals with LNCaP95 cells. As to the kind of experiment: LNCaP95 proliferation, BrdU incorporation. The assay is classed as cell-based, human. To be noted: I-EPI-002 2 μM, EPI-002 25 μM, enzalutamide 5 μM; 2 days.
Another assay concerns the target T4, GR (Homo sapiens, UniProt P04150).
T4 sequence (P04150 1-777): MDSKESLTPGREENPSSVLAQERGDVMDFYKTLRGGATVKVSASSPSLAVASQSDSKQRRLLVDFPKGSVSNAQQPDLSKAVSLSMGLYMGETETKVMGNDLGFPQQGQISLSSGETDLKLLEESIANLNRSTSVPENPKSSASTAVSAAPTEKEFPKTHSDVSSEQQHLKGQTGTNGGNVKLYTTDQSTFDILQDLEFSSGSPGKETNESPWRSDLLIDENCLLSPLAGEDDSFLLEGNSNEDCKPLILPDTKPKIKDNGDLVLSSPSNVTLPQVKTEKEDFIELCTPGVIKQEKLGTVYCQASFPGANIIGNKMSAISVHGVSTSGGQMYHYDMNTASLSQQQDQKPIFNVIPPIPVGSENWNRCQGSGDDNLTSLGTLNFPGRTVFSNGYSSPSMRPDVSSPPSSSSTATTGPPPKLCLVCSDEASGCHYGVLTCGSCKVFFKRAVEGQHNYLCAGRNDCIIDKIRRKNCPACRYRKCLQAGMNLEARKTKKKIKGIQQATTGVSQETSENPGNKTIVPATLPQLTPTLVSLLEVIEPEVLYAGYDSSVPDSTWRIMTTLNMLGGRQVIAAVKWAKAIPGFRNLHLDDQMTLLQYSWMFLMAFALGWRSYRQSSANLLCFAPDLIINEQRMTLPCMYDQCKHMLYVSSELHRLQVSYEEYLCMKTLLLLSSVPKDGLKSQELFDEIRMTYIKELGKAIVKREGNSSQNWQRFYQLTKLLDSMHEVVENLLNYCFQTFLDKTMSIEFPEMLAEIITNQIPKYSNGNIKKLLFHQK
In words: GR transcriptional activity, GRE luciferase reporter. The assay is classed as cell-based. To be noted: dexamethasone induced.

The target of assay [1] is T5, endogenous full-length AR (Homo sapiens, UniProt P10275, T878A).
T5 sequence (P10275 1-920 T878A): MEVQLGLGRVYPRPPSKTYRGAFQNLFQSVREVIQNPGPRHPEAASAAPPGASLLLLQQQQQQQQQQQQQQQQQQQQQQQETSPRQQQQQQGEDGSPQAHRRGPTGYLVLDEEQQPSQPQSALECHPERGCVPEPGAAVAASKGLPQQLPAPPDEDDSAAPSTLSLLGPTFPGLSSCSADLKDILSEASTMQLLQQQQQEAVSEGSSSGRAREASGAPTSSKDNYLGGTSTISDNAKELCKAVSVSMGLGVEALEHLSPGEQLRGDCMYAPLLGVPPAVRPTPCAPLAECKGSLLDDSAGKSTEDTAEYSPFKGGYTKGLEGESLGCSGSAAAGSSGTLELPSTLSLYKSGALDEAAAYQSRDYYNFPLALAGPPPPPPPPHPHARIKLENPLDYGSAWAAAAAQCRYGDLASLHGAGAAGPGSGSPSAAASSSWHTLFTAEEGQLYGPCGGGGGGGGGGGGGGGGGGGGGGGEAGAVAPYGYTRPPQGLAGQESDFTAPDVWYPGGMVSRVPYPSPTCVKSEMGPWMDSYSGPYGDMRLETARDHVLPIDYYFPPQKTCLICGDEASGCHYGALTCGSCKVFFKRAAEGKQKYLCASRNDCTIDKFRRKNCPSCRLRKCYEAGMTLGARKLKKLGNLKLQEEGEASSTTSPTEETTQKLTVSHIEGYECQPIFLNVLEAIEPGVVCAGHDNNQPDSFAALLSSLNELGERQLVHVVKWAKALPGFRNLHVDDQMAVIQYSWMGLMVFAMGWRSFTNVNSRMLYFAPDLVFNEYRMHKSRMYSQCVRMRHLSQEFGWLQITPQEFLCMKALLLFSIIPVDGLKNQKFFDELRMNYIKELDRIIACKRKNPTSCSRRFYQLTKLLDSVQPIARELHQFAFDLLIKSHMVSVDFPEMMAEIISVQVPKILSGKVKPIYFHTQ
As to the kind of experiment: Probasin luciferase activity in LNCaP cells, endogenous full-length AR. To be noted: I-EPI-002 2 μM, enzalutamide 5 μM; R1881 1 nM 24 hours.

Another assay relates to ER LBD. As to the kind of experiment: Fluorescence polarization competition binding, ER LBD.

For 15-IodoEPI002 [I-EPI-002], the “competition with fluoromone for binding to AR LBD” value at recombinant AR LBD is given as “did not prevent ligand-binding”. In addition, at GR LBD, the “competition for ligand binding to GR LBD” value is given as “did not prevent ligand-binding”. Also, on PR LBD, the “competition for ligand binding to PR LBD” value was “did not prevent ligand-binding”. Further, the “effect on proliferation of LNCaP95 cells” value in the assay on LNCaP95 cells is on record as “decreased proliferation”. Besides, the “inhibition of GR transcriptional activity” value against GR is on record as “did not inhibit”. For the same substance, in assay [1], the “inhibition of probasin luciferase activity, full-length AR” value is reported as “showed good inhibition”. In the assay on ER LBD, the “competition for ligand binding to ER LBD” value was “did not prevent ligand-binding”.
